Read-outs that look alike come from different tables or passages of the source.
Molecular target: T1, hKCC3a (Homo sapiens, UniProt Q9UHW9, L346X/L35X/L789X)
T1 construct: A full-length hKCC3a construct has also been generated for functional expression; expressed in transfected cells; host or cells: Xenopus laevis oocytes injected with cRNA
T1 sequence (Q9UHW9 1-1150 L35X/L346X/L789X): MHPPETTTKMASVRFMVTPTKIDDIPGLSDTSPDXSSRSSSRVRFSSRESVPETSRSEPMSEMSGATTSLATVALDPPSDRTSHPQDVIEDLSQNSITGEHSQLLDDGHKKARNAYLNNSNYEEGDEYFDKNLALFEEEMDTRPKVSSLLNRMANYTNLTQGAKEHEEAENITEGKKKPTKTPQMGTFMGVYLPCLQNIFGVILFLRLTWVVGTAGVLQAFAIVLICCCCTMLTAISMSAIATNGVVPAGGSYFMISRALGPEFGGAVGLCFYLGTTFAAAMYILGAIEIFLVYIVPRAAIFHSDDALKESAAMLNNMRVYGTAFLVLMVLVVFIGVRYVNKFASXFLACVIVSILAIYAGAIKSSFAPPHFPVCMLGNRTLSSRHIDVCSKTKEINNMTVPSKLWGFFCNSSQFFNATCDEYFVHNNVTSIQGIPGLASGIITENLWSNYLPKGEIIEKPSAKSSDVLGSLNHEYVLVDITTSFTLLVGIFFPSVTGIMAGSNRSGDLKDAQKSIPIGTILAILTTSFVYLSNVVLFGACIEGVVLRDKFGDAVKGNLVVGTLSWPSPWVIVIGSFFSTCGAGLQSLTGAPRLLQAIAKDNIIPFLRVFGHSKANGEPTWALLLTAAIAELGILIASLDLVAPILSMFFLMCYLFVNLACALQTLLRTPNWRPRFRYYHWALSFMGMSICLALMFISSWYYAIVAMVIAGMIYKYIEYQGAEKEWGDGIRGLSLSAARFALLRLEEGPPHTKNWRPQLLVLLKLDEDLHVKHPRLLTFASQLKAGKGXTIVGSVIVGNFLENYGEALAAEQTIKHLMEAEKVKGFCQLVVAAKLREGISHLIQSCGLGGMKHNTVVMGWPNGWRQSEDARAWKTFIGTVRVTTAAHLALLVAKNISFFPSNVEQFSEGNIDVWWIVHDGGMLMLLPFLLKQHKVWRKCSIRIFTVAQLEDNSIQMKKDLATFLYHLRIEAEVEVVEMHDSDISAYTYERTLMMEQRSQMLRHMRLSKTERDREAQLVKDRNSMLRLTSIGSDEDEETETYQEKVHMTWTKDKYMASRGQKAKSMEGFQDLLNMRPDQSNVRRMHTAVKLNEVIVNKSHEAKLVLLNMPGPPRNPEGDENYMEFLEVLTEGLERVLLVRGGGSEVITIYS
Test: 86Rb+ uptake (K+-Cl- cotransport) in Xenopus oocytes injected with hKCC3a cRNA
Format: cell-based
Details: for Km: KCC3

Q: `[K+]` [Potassium] was tested. Which Km (read-out: Potassium Km) did it give?
A: The Km was 51.9 mM.

Q: Which “response of KCC3a to mercury” value (50 μM HgCl2, hypotonic) does the source give for HgCl2 [Hg—Cl2] here?
A: Its value is “resistant”.

Q: Which Km (read-out: Chloride Km) does the source give for `Cl` [Chloride] here?
A: Its Km is 14.2 mM.

From patent US7183075B2, “Purified and isolated potassium-chloride cotransporter nucleic acids and polypeptides and therapeutic and screening methods using same” (Vanderbilt University, priority 2000, dated 2007)
